Results from US10398315B2, “Method of imaging living tissue” (Agency for Science, Technology and Research, priority 2013, dated 2019).
Entries after “also recorded” stand apart in the source; their conditions may differ.

Key:
[1] = MSOT phantom measurement of photoacoustic signal; format: physicochemical; conditions: 680-900 nm; for Relative PA Quantum yield (ϕP): gradient of unmixed PA signal vs concentration in phantom, arbitrary ratios; for PA signal / photoacoustic activity in phantoms: phantom, compared among the 5 photosensitizers
Experimental: In order to verify the PA activity of the photosensitizers under controlled conditions, phantom measurements for all the contrast agents were performed, in the 680-900 nm wavelength range, each at 5 different concentrations.
All phantom and in vivo mouse imaging experiments were performed using a real-time multispectral optacoustic tomographic (MSOT) imaging system; inVision 128 (iThera Medical GmbH, Neuherberg, Germany).
The phantom was made of polyurethane, cylindrical in shape with a diameter of 2 cm, which was specially designed to mimic the shape, size and optical properties of the mouse (iThera Medical GmbH, Neuherberg, Germany). In addition, it had 2 inner cylindrical channels, each with diameter of 3 mm, one for holding the control medium and the other for holding the dissolved contrast agent in the same medium, to measure PA signal compared to the control medium, as shown in FIG. 2A.
Optical excitation was provided by an optical parametric oscillator (OPO) with a tunable near infra-red (NIR) wavelength range from 680 nm to 980 nm, which is in turn pumped by a Q-switched Nd:YAG laser with a pulse duration of 10 ns and repetition rate of 10 Hz. Light was delivered by a fiber bundle divided into 10 output arms to illuminate the sample from multiple angles around the imaging plane.
Photoacoustic (PA) signals were acquired using a 128-element concave transducer array spanning a circular arc of 270°. […] One transverse image slice was acquired from each laser pulse, resulting in a frame-rate of 10 Hz.
During image acquisition, the sample is translated through the transducer array along its axis across the volume ROI, in order to capture the corresponding transverse image slices. Data from multiple transverse slices across the channel portion which contains the probe and control were recorded. Excitation wavelength scan from 680 to 900 nm with an interval of 10 nm for each transverse slice was applied, and the averaged PA signals from 10 frames for each wavelength and position were recorded.
In addition, PA signal for each contrast agent was spectrally unmixed via linear regression. This allowed isolation of the individual contribution of the contrast agent of interest that may be plotted as a function of concentration, which in turn was used to produce a straight line of best fit based on least-squares regression, for each contrast agent.
This gradient was thereby defined by the inventors as a form of relative PA quantum yield (ϕP), a kind of measure of the efficiency of the conversion of light absorption into photoacoustic signal. This is analogous to fluorescence quantum yield (ϕ), which measures efficiency of the conversion of light absorption into fluorescence emission.
The numbers shown are not absolute values, but arbitrary ratios, which reflect the relative PA strength of one compound against that of another.

[2] = literature value; cited from earlier work
[3] = literature value; cited from earlier work; remark: listed apart in the source
[4] = Concentration of drug in the blood calculated from pre-clinical in vivo dose from literature; conditions: assuming volume of blood in mice 2 ml
[5] = UV absorbance measurement 680-900 nm; format: physicochemical; conditions: 680 nm to 900 nm, normalized absorbance, compared among the 5 photosensitizers
Experimental: In order to obtain information about optical absorption properties of the contrast agents, their wavelength-dependent absorption spectra at known concentrations were measured using a spectrophotometer.
In the experiments carried out, wavelength-dependent absorption spectrum of the contrast agents was measured from 680 nm to 900 nm using a spectrophotometer (DU 730, Beckman Coulter), which in turn was used as an input spectrum for multispectral post-processing of photoacoustic signals.
The spectra were normalized to obtain the concentration-independent normalized absorbance (directly proportional to extinction coefficient) as a function of wavelength for each contrast agent (FIG. 1), based on Beer-Lambert law: A(λ)=ln(Io/I)=ε(λ)cl
where A(λ) is the measured wavelength-dependent absorbance, I0 is the incident light intensity, I is the transmitted light intensity, ε(2) is the wavelength-dependent extinction coefficient of the contrast agent, c is the concentration of the contrast agent and l is the path length of the quartz cuvette (1 cm).

[6] = In vivo longitudinal MSOT monitoring of probe biodistribution in mouse xenograft model; conditions: 0.21 mg/kg tail vein; for time of peak accumulation post injection: tumor site and organs
Experimental: For in vivo imaging, ultrasound gel was applied on the mouse skin surface, and measurements were recorded in temperature-controlled water for good acoustic coupling. An animal holder with a thin polyethylene membrane was used to prevent direct contact between the mouse and the water.
Xenograft mice models were established by injecting subcutaneously into the right flank of mouse, 0.2 mL of cell suspension containing about 5×10^6 to 6×10^6 MCF-7, a human metastatic breast cancer cell line or OSCC, a human oral squamous carcinoma cell line and matrigel (BD biosciences) in 1:1 volume ratio. When the tumor volume reached a palpable size, the mouse was used for in vivo PA imaging.
ZnPc at a dosage of 0.21 mg/kg was injected via a catheter into the tail vein of a subcutaneous tumor bearing mice anaesthetized under isoflurane and the probe biodistribution or uptake was monitored over time in various organs of liver, spleen, kidneys, intestines and tumor using photoacoustic imaging. Before image acquisition, a volume ROI consisting of transverse slices with a step size of 0.3 mm spanning from the liver to the lower abdomen was selected by manual inspection of live MSOT images, and the 6 laser excitation wavelengths of 680, 700, 750, 800, 850 and 900 nm were selected for correspondence with the major turning points in the absorption spectra of ZnPc, oxy-haemoglobin and deoxy-haemoglobin. Multispectral imaging was then performed with 10 signal averages per wavelength per transverse slice, before injection, during injection and 1, 3, 5, and 24 hr post-injection.
Images were reconstructed using a model-based approach as discussed in Rosenthal, A. et al. (Rosenthal, A. et al., Fast semi-analytical model-based acoustic inversion for quantitative optoacoustic tomography. IEEE Trans. Med. Imag. 29, 1275-1285 (2010)) for offline analysis. After image reconstruction, spectral unmixing was performed to resolve individual components from different chromophores in the system. For each pixel in the image, the method fits the total measured optoacoustic spectrum to the known absorption spectra of the individual chromophores, based on least-squares linear regression.
A volume ROI consisting of transverse slices spanning from the liver to the lower abdomen was scanned, and maximum intensity projections (MIPs) based on these slices were constructed for image analysis.
For the later time points, this background subtraction was not possible, as the animal was removed and placed in the MSOT system repeatedly, with repositioning, in order to avoid overdosage of isoflurane for the entire 24-hour duration.

| Molecule | Relative PA Quantum yield (ϕP) [1] | Fluorescence Quantum Yield (ϕF) [2] | Singlet Oxygen Quantum Yield (ϕΔ) [3] | Concentration of drug in the blood [4] [µM] | overall absorbance in the NIR region [5] | Relative PA Quantum yield (ϕP) ([1]; listed as zinc pthalocyanine) | PA signal / photoacoustic activity in phantoms [1] | PA signal / photoacoustic activity in phantoms ([1]; listed as zinc phthalocyanine) | PA signal / photoacoustic activity in phantoms ([1]; listed as zinc pthalocyanine) | tmax, time of peak concentrations ([6]; MIPs t=10 to 60 mins) [h] | time to clearance ([6]; MSOT signal) [h] | organ biodistribution of MSOT signal ([6]; liver, spleen, kidneys, intestines, tumor) | time of peak tumor-to-muscle ratio of MSOT signal ([6]; n=4) [h] | time to localization at the tumor post injection ([6]; tumor bearing mice) [min] | time of peak accumulation post injection [6] [h] | time of peak accumulation post injection ([6]; listed as zinc phthalocyanine) |
| --- | --- | --- | --- | --- | --- | --- | --- | --- | --- | --- | --- | --- | --- | --- | --- | --- |
| chlorin e6 [Ce6] | 0.036 | 0.19 [23] | 0.65 [23] | 41.90 |  |  |  |  |  |  |  |  |  |  |  |  |
| O=C1C(=C2C(O)=CC(=[N+](Cc3ccccc3)Cc3ccccc3)C=C2O)C([O-])=C1c1c(O)cc(N(Cc2ccccc2)Cc2ccccc2)cc1O [Sq, 2,4-bis[4-(N,N-dibenzylamino)-2,6-dihydroxyphenyl]squaraine] | 0.18 | 0.037 [27] | 0.61-0.74 [28] | 181.40 |  |  |  |  |  |  |  |  |  |  |  |  |
| CN(C)c1ccc2nc3ccc(=[N+](C)C)cc-3sc2c1 [MB, methylene blue] | 0.029 | 0.02 [23] | 0.55 [23] | 1337.00 |  |  |  |  |  |  |  |  |  |  |  |  |
| C=CC1=C(C)c2cc3[nH]c(cc4nc(cc5[nH]c(cc1n2)c(C)c5CCC(=O)O)C(CCC(=O)O)=C4C)c(C)c3C=C [PpIX, protoporphyrin IX] |  |  |  | 88.88 |  |  |  |  |  |  |  |  |  |  |  |  |
| [Zn+2].c1ccc2c(c1)-c1nc-2nc2[n-]c(nc3nc([n-]c4nc(n1)-c1ccccc1-4)-c1ccccc1-3)c1ccccc21 [ZnPc, zinc phthalocyanine] |  | 0.06 [23] | 0.62 [23] | 3.63 | highest overall absorbance | highest relative photoacoustic quantum yield | strongest PA signal in phantoms | highest photoacoustic activity | strongest photoacoustic signal | 1 | ≤ 24 | strong in vivo MSOT signal of ZnPc was detected in the reticuloendothelial system (liver, spleen), intestines and tumor site within the first hour after injection; also recorded: high concentrations were found in the liver and intestines up to the 3-hour time point, whereas renal signal was much weaker in comparison | 1 | ≤ 10 | 1 | around 1 hour |
